The text below walks through data of PMC5085761 (International Journal of Molecular Sciences, 2016).

The test system of series [1] is LLC-PK1 monolayers. Description: Apical-to-basal transport through LLC-PK1 monolayers. The series is classed as in vitro ADME, pig. The conditions noted are these: 10 µM tracer, at 120 min. The method, then:
The LLC-PK1 cell line was purchased from DS Pharma Biomedical (Osaka, Japan). Cells were maintained in Dulbecco’s modified Eagle’s medium (DMEM; Life Technologies Japan, Tokyo, Japan) supplemented with 10% (v/v) fetal bovine serum (American Type Culture Collection, Manassas, VA, USA) and antibiotics (100 U/mL penicillin and 100 μg/mL streptomycin (Life Technologies Japan)). Cells were cultured at 37 °C under an atmosphere containing 5% CO2 before the start of the experiments.
Cells were seeded at a density of 1.5 × 10^6 cells/0.25 mL on the membrane of cell culture inserts fitting 24-well plates (upper compartment, apical side; Becton Dickinson, Franklin Lakes, NJ, USA). Flat-bottom 24-well tissue culture plates (Becton Dickinson) containing 0.95 mL of culture medium per well were used as the basolateral side (bottom compartment).
LLC-PK1 monolayer formation was monitored by the measurement of TER using an EVOM-2 and Endohm24 (World Precision Instruments, Inc., Sarasota, FL, USA) according to the manufacturer’s protocol. […] [^3H]Mannitol transport was measured as described in Section 4.3 for the validation of tight junction formation because mannitol passes through the cell monolayers via the paracellular route.
Experimental procedures were performed as described previously with minor modifications. After cultivation as described above, the culture media in both compartments were replaced with Na^+ buffer (137 mM NaCl, 2.7 mM KCl, 8 mM Na2HPO4, 1.5 mM KH2PO4, 5.6 mM D-glucose, 0.9 mM CaCl2, and 0.5 mM MgCl2; pH 7.4 at 37 °C), and the cells were preincubated for 10 min at 37 °C under normal air conditions. After the buffer was removed from each compartment, the permeability experiments were started with the addition of 0.25 mL of Na^+ buffer containing radiolabeled tracers (final concentration: 81 nM for [^3H]mannitol and 10 μM for the ^14C-labeled amino acid tracers) in each upper compartment, and 0.95 mL of Na^+ buffer in each bottom compartment. The inserts were placed into new 24-well culture plates containing 0.95 mL/well of Na^+ buffer after 5, 15, 30, 60, and 90 min of incubation. Subsequently, the cells were incubated up to 120 min at 37 °C under normal air conditions.
The apical-to-basal permeability was measured by sampling an aliquot of the buffer from the upper and bottom compartment at the indicated times. To evaluate intracellular accumulation, the cells were lysed in 0.5 mL of 0.1N NaOH at room temperature following rapid washing of the cells with ice-cold Na^+ buffer. The radioactivity of each aliquot was measured with an LSC6000SC (Beckman Coulter, Inc., Brea, CA, USA) or Tri-Carb 2910TR liquid scintillation counter (PerkinElmer) using Ultima Gold (PerkinElmer).

In series [2] the target is T1, human BCRP (Homo sapiens, UniProt Q9UNQ0).
T1 construct: purchased GenoMembrane Co., Ltd. (Kanagawa, Japan); host or cells: Sf9
T1 sequence (Q9UNQ0 1-655): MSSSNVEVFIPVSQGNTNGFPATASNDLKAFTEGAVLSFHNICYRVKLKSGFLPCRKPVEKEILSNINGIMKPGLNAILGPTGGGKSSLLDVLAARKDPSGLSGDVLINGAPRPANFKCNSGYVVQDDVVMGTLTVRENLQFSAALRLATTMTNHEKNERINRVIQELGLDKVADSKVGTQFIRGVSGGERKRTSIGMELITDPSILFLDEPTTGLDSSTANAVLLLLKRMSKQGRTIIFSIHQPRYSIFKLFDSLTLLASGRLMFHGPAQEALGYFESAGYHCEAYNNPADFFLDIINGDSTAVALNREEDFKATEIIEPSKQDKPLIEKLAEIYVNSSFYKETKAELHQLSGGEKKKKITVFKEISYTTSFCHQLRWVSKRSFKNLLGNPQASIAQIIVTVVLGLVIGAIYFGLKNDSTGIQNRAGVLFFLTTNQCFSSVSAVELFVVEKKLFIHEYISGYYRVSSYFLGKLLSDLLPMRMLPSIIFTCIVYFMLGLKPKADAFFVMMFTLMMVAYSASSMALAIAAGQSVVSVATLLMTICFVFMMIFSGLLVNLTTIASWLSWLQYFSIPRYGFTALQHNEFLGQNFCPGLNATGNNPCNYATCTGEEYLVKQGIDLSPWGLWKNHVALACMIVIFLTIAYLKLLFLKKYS
Description: [14C]fluciclovine uptake by BCRP-expressing inside-out vesicles. It is filed as in vitro ADME. The method, then: For ABC transporters, experimental kits containing Sf9-derived vesicles with high expression levels of human P-gp, MRP4, BCRP, and each ABC transporter (including buffer, ATP/AMP solution, and glutathione) were purchased from GenoMembrane Co., Ltd. (Kanagawa, Japan).
Vesicular transport assays were carried out according to the manufacturer’s protocol. […] The reaction was started by suspending 50 μg of vesicles (10 μL) in 40 μL of the reaction buffer. After incubation for an appropriate period of time, the reaction was stopped by the addition of ice-cold stop buffer (40 mM MOPS-Tris and 70 mM KCl; pH 7.0), after which the solution was filtered through a 0.45 μm HA filter (Millipore Corp., Billerica, MA, USA) using suction, and was washed twice in 5 mL of ice-cold stop buffer. The radioactivity of the filter was measured with a Tri-Carb 2910TR liquid scintillation counter (PerkinElmer) using Ultima Gold (PerkinElmer). The amount of tracer uptake was normalized to the membrane protein amount described in the product information sheets.

With `N[14C]1(C(=O)O)CC(F)C1` (stereo not drawn) [[^14C]fluciclovine, trans-1-amino-3-fluoro[1-^14C]cyclobutanecarboxylic acid], in series [1], the “mean penetration amount (apical-to-basal transport)” value was 145 pmol and the “mean residual radioactivity in the cells” value came to 238 pmol. Besides, the “uptake compared with control vesicles” value in series [2] is “reduced in comparison to that of the control vesicles, albeit not significantly”.
